Consider one compound from ChEMBL document CHEMBL1126423, “Acid-catalyzed O-allylation of -hydroxy--amino acids: an entry into conformationally constrained dipeptide surrogates” (Bioorg Med Chem Lett, 1992).

This experiment deals with T1, Angiotensin-converting enzyme (Oryctolagus cuniculus, UniProt P12822).
T1 sequence (P12822 whole entry): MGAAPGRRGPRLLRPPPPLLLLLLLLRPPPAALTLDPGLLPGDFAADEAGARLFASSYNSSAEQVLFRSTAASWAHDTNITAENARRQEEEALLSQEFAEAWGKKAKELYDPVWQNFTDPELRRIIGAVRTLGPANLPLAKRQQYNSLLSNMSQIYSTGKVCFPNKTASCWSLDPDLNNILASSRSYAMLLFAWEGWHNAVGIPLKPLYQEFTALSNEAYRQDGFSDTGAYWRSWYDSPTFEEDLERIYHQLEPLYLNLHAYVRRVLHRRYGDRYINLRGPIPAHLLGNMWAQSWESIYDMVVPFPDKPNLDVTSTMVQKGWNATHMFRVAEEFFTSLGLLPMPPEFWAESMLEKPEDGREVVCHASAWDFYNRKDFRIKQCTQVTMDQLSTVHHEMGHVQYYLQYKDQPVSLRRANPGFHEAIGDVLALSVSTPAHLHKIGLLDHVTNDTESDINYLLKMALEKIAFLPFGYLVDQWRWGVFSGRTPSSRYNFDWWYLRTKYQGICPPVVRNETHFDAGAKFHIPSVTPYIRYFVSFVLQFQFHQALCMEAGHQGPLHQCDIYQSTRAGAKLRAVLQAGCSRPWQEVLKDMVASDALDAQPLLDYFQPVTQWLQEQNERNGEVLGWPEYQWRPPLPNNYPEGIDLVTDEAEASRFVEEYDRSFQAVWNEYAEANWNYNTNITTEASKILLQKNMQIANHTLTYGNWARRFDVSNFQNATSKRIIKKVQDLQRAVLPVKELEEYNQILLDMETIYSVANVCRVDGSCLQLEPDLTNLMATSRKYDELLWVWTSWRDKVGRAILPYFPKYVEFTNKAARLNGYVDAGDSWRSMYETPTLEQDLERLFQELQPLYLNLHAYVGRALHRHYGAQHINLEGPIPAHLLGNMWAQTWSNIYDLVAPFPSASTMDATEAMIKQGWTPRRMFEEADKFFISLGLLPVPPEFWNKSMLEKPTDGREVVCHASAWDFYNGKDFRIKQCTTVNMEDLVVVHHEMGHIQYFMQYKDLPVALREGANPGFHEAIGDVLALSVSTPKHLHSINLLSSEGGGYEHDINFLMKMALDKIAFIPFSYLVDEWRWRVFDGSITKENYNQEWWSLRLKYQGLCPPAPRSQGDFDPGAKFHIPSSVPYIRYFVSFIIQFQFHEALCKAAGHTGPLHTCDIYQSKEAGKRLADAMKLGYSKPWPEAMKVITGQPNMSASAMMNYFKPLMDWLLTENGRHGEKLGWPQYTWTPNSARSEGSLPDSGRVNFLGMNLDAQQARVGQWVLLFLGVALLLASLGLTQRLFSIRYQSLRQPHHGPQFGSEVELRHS
Put plainly: Inhibitory concentration against rabbit lung Angiotensin I converting enzyme (ACE).

On to `O=C(O)[C@H](CCc1ccccc1)NC1Cc2ccccc2C2COC[C@H](C(=O)O)N2C1=O` (stereo partly specified), for which the IC50 came out at 0.09 nM.
